# Source: patent publication US8546424B2, “Acetylene derivatives of 5-phenyl-pyrazolopyridine, preparation thereof, and therapeutic use thereof” (Sanofi, priority 2009, dated 2013)
# Target: T1, mouse Nurr1 receptor (Mus musculus, UniProt Q06219)
# T1 construct: endogenously expressing the mouse Nurr1 receptor; host or cells: Neuro-2A (N2A) mouse neuroblastoma cells stably transfected with 8NBRE-luciferase
# Assay: in vitro activity on N2A cells (8NBRE-luciferase reporter)
# Type: cell-based
# Conditions: N2A-8NBRE cells, 24 hours incubation
# Method: The compounds according to the invention have formed the subject of pharmacological assays which make it possible to determine their modulatory effect on NOT. Evaluation of the in vitro Activity on N2A Cells
# The activity of the compounds according to the invention was evaluated on a cell line (N2A) endogenously expressing the mouse Nurr1 receptor and stably transfected with the NOT binding response element (NBRE) coupled to the luciferase reporter gene. The assays were carried out according to the procedure described below.
# The Neuro-2A cell line comes from a standard commercial source (ATCC). The Neuro-2A clone was obtained, from a spontaneous tumour originating from an A albino mouse strain, by R. J Klebe et al. This Neuro-2A line is subsequently stably transfected with 8NBRE-luciferase. The N2A-8NBRE cells are cultured until confluence in 75 cm^2 culture flasks containing DMEM supplemented with 10% of foetal calf serum, 4.5 g/l of glucose and 0.4 mg/ml of geneticin. After a week of culture, the cells are recovered with 0.25% trypsin for 30 seconds and then resuspended in DMEM without phenol red, containing 4.5 g/l of glucose and 10% of Hyclone delipidized serum, and deposited into transparent-bottom 96-well white plates. […] The plates are subsequently measured in a luminescence counter for microplates after having been sealed with an adhesive film. […]
# T1 sequence (Q06219 whole entry): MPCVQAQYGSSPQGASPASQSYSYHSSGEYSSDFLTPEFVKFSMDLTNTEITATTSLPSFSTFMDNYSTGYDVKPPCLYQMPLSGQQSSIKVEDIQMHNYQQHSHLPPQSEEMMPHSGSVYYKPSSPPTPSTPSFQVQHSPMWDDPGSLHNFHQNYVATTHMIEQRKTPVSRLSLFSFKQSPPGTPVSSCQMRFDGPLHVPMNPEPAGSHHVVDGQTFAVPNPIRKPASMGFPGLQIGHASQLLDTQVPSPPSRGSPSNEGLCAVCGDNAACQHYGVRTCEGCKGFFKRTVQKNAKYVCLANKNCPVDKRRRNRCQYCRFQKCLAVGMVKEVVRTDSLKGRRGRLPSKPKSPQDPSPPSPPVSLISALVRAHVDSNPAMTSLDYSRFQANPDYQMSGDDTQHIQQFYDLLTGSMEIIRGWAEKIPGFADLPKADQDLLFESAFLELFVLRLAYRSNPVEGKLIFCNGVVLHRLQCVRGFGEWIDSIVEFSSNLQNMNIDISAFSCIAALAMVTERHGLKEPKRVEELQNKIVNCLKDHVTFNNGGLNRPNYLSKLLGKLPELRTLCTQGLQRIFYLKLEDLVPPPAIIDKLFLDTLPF
row,EC50,SMILES
1,3 nM,"C#CC(O)c1cccc(-c2ccn3nc(-c4ccc(F)cc4)cc3c2)c1 (racemic) [Compound 2, 1-{3-[2-(4-Fluorophenyl)pyrazolo[1,5-a]pyridin-5-yl]phenyl}prop-2-yn-1-ol]"

# System: not given
# Assay: not given
# Conditions: not given
row,SMILES,melting point
1,"C#CC(O)c1cccc(-c2ccn3nc(-c4ccc(Cl)cc4)cc3c2)c1 (racemic) [Compound 1, 1-{3-[2-(4-Chlorophenyl)pyrazolo[1,5-a]pyridin-5-yl]phenyl}prop-2-yn-1-ol]",195 to 197 °C
2,"CC#CC(O)c1cccc(-c2ccn3nc(-c4ccc(F)cc4)cc3c2)c1 (racemic) [Compound 3, 1-{3-[2-(4-Fluorophenyl)pyrazolo[1,5-a]pyridin-5-yl]phenyl}but-2-yn-1-ol]",164 to 166 °C
3,"C#CC(O)c1ccccc1-c1ccn2nc(-c3ccc(F)cc3)cc2c1 (racemic) [Compound 5, 1-{2-[2-(4-Fluorophenyl)pyrazolo[1,5-a]pyridin-5-yl]phenyl}prop-2-yn-1-ol]",104 to 106 °C
4,"C#CC(O)c1c(F)ccc(-c2ccn3nc(-c4ccc(F)cc4)cc3c2)c1F (racemic) [Compound 6, 1-{2,6-Difluoro-3-[2-(4-fluorophenyl)pyrazolo[1,5-a]pyridin-5-yl]-phenyl}prop-2-yn-1-ol]",151 to 153 °C
5,"C#CC(O)c1cccc(-c2ccn3nc(-c4ccccc4F)cc3c2)c1 (racemic) [Compound 7, 1-{3-[2-(2-Fluorophenyl)pyrazolo[1,5-a]pyridin-5-yl]phenyl}prop-2-yn-1-ol]",157 to 159 °C
6,"C#CC(O)c1cccc(-c2ccn3nc(-c4ccc(C)cc4)cc3c2)c1 (racemic) [Compound 8, 1-[3-(2-{p-Tolyl}pyrazolo[1,5-a]pyridin-5-yl)phenyl]prop-2-yn-1-ol]",183 to 185 °C

# The next lines start with the values.
row,melting point,SMILES
1,192 to 194 °C,"C#CC(O)c1cccc(-c2ccn3nc(-c4ccc(F)cc4)cc3c2)c1 (racemic) [Compound 2, 1-{3-[2-(4-Fluorophenyl)pyrazolo[1,5-a]pyridin-5-yl]phenyl}prop-2-yn-1-ol]"
2,215 to 217 °C,"C#CC(C)(O)c1cccc(-c2ccn3nc(-c4ccc(F)cc4)cc3c2)c1 (racemic) [Compound 4, 2-{3-[2-(4-Fluorophenyl)pyrazolo[1,5-a]pyridin-5-yl]phenyl}but-3-yn-2-ol]"
3,139 to 141 °C,"C#CC(O)c1cccc(-c2ccn3nc(-c4ccc(F)cc4)cc3c2)c1 (single isomer, unassigned; (+)) [Compound 10, (+)-1-{3-[2-(4-Fluorophenyl)pyrazolo[1,5-a]pyridin-5-yl]phenyl}prop-2-yn-1-ol]"
4,126 to 128 °C,"C#CC(C)(O)c1cccc(-c2ccn3nc(-c4ccc(F)cc4)cc3c2)c1 (single isomer, unassigned; (+)) [Compound 12, (+)-2-{3-[2-(4-Fluorophenyl)pyrazolo[1,5-a]pyridin-5-yl]phenyl}but-3-yn-2-ol]"
5,147 to 149 °C,"C#CC(O)c1cccc(-c2ccn3nc(-c4ccc(F)cc4)cc3c2)c1 (single isomer, unassigned; (-)) [Compound 9, (−)-1-{3-[2-(4-Fluorophenyl)pyrazolo[1,5-a]pyridin-5-yl]phenyl}prop-2-yn-1-ol]"
6,122 to 124 °C,"C#CC(C)(O)c1cccc(-c2ccn3nc(-c4ccc(F)cc4)cc3c2)c1 (single isomer, unassigned; (-)) [Compound 11, (−)-2-{3-[2-(4-Fluorophenyl)pyrazolo[1,5-a]pyridin-5-yl]phenyl}but-3-yn-2-ol]"
